From patent US4517191A, “1-Amino-1,8-naphthyridine compounds useful as bactericides” (Sterling Drug Inc., priority 1983, dated 1985)
In brackets after ≈: the same amount, converted by molar mass.

Experiments:
Bacteria = test: in vitro antibacterial activity, serial dilution, stated for the bacteria as a whole; format: cell-based; conditions: at the highest concentrations tested (62.5-500 mcg/ml)
Method: (§1) The in vitro antibacterial activity of the compounds of the invention was determined by conventional serial dilution procedures. Bacterial cultures were grown in tryptose phosphate broth or brain heart infusion broth (containing heat-inactivated normal horse serum for tests with S. pyogenes) overnight at 37° C. and subsequently diluted in double strength broth to provide bacterial inocula of about 2×10^5 cells/ml. Aqueous solutions of the compounds of Formula I where R" is hydrogen were prepared by dissolving the free acid form in 0.5N sodium hydroxide. The solutions were diluted with sterile distilled water to 1000 mcg/ml of compound in terms of the free acid. Serial two-fold dilutions of the compound stock solutions were prepared in water and 0.5 ml of each dilution was transferred to sets of tubes, one set for each bacterial inoculum. Each tube was then inoculated with 0.5 ml of the appropriate culture, resulting in a final bacterial concentration of about 1×10^5 cells/ml. The minimal inhibitory concentration (MIC), defined as the lowest concentration of the test compound to inhibit visible bacterial growth, was recorded after 18-20 hours of static incubation at 37° C. The results are recorded in Table I:
These are intermediates for the compounds of Examples 5 and 7.

Escherichia coli Vogel [1] = test: in vitro antibacterial activity, serial dilution (MIC); format: cell-based; conditions: 18-20 hours at 37° C., about 1×10^5 cells/ml, read-out: Minimal Inhibitory Concentration
Method: as §1, with “C.” for “C. The results are recorded in Table I:”

[2] = system: Klebsiella pneumoniae 39645; test: as above; format: cell-based; conditions: 18-20 hours at 37° C., about 1×10^5 cells/ml, read-out: Minimal Inhibitory Concentration
Method: as §1, with “C.” for “C. The results are recorded in Table I:”

Proteus mirabilis MGH-1 = test: as above; format: cell-based; conditions: MGH1, 18-20 hours at 37° C., about 1×10^5 cells/ml, read-out: Minimal Inhibitory Concentration
Method: as §1, with “C.” for “C. The results are recorded in Table I:”

Proteus vulgaris 9920 = test: as above; format: cell-based; conditions: 18-20 hours at 37° C., about 1×10^5 cells/ml, read-out: Minimal Inhibitory Concentration
Method: as §1, with “C.” for “C. The results are recorded in Table I:”

[3] = system: Pseudomonas aeruginosa MGH-2; test: as above; format: cell-based; conditions: MGH2, 18-20 hours at 37° C., about 1×10^5 cells/ml, read-out: Minimal Inhibitory Concentration
Method: as §1, with “C.” for “C. The results are recorded in Table I:”

[4] = system: Staphylococcus aureus Smith; test: as above; format: cell-based; conditions: 18-20 hours at 37° C., about 1×10^5 cells/ml, read-out: Minimal Inhibitory Concentration
Method: as §1, with “C.” for “C. The results are recorded in Table I:”

[5] = system: Streptococcus pyogenes C203; test: as above; format: cell-based; conditions: broth containing heat-inactivated normal horse serum, 18-20 hours at 37° C., about 1×10^5 cells/ml, read-out: Minimal Inhibitory Concentration
Method: as §1, with “C.” for “C. The results are recorded in Table I:”

Escherichia coli Vogel [6] = test: in vivo antibacterial activity in infected female mice (E. coli); conditions: sc, 168 h, E. coli i.p. infection, medicated once s.c. one-half hour post infection, deaths recorded for seven days, read-out: Protective Dose (PD50)
Method: (§2) The in vivo antibacterial activity of the compounds of the invention was determined in female mice, 18-20 grams each, by the following procedure:
(§3) Aqueous solutions of the compounds of Formula I where R" is hydrogen were prepared by dissolving the free acid form in dilute sodium hydroxide and diluting the solution with distilled water to the desired volume.
(§4) Cultures of Escherichia coli Vogel prepared in brain heart infusion broth, and cultures of Klebsiella pneumoniae 39645 grown in tryptose phosphate broth with 5% rabbit serum diluted in the same broth were used to infect the mice as follows:
E coli: mice were inoculated intraperitoneally with 0.5 ml of the bacerial test inoculum (1.87×10^7 and 5×10^6 cells/ml respectively).
Mice infected with E. coli were medicated once (0.5 ml) one-half hour post infection, the test compound being administered by the subcutaneous (s.c.) route. Deaths were recorded daily for seven days.
(§5) Groups of ten animals each for four or five dose levels were thus treated and the number of survivors in each group recorded. The fifty percent protective dose values (PD50) were then calculated.

[7] = system: Klebsiella pneumoniae 39645; test: in vivo antibacterial activity in infected female mice (K. pneumoniae); conditions: Klebsiella pneumoniae, 39645, sc, 336 h, K. pneumoniae i.m. infection, s.c. 17 h and 1 h preinfection, 6 h postinfection, twice a day for next three days, deaths recorded for fourteen days, read-out: Protective Dose (PD50)
Method: as §2, §3, §4
K. pneumoniae: mice were inoculated intramuscularly in the right hind leg with 0.2 ml of the bacterial test inoculum (2.05×10^4 cells/ml).
Mice infected with K. pneumoniae were medicated at the following times: seventeen hours and one hour preinfection, six hours postinfection and twice a day for the next three days. The test compound was administered the subcutaneous (0.2 ml) route. Deaths were recorded daily for fourteen days.
as §5

| Compound | in vitro antibacterial activity (Bacteria) | MIC (Escherichia coli Vogel [1]) [µg/mL] | MIC [2] [µg/mL] | MIC (Proteus mirabilis MGH-1) [µg/mL] | MIC (Proteus vulgaris 9920) [µg/mL] | MIC [3] [µg/mL] | MIC [4] [µg/mL] | MIC [5] [µg/mL] | ED50 (Escherichia coli Vogel [6]) [mg/kg] | ED50 [7] [mg/kg] |
| --- | --- | --- | --- | --- | --- | --- | --- | --- | --- | --- |
| CCOC(=O)c1cn(N)c2nc(C)ccc2c1=O [Example 1, Ethyl 1-amino-1,4-dihydro-7-methyl-4-oxo-1,8-naphthyridine-3-carboxylate] | inactive |  |  |  |  |  |  |  |  |  |
| Cc1ccc2c(=O)c(C(=O)O)cn(N)c2n1 [Example 2, 1-Amino-1,4-dihydro-7-methyl-4-oxo-1,8-naphthyridine-3-carboxylic acid] | inactive |  |  |  |  |  |  |  |  |  |
| CCOC(=O)c1cn(N(C)C=O)c2nc(C)ccc2c1=O [Example 4, Ethyl 1-(N-formylmethylamino)-1,4-dihydro-7-methyl-4-oxo-1,8-naphthyridine-3-carboxylate] | inactive |  |  |  |  |  |  |  |  |  |
| CNn1cc(C(=O)O)c(=O)c2ccc(C)nc21 [Example 5, 1,4-Dihydro-7-methyl-1-methylamino-4-oxo-1,8-naphthyridine-3-carboxylic acid] |  | 31.3 (≈ 134 µM) | 62.5 (≈ 268 µM) | 62.5 (≈ 268 µM) | 62.5 (≈ 268 µM) | > 500 | > 500 | > 500 | 141 | > 200 |
| CCOC(=O)c1cn(N(C=O)CC)c2nc(C)ccc2c1=O [Example 6, Ethyl 1-(N-formylethylamino)-1,4-dihydro-7-methyl-4-oxo-1,8-naphthyridine-3-carboxylate] | inactive |  |  |  |  |  |  |  | 53.5 | > 200 |
| CCNn1cc(C(=O)O)c(=O)c2ccc(C)nc21 [Example 7, 1-Ethylamino-1,4-dihydro-7-methyl-4-oxo-1,8-naphthyridine-3-carboxylic acid] |  | 31.3 (≈ 127 µM) | 125 (≈ 506 µM) | 250 (≈ 1010 µM) | 15.6 (≈ 63.1 µM) | > 500 | > 500 | > 500 | 93 | > 200 |
